Measurements taken from patent US11738072B2, “Tumor vaccine and uses thereof” (WestVac Biopharma Co., Ltd., priority 2017, dated 2023).

What was measured:
A549 cells [1] = experiment: A549 cell death test by PI-AnnexinV (fluorescence microscope); type: cell-based; conditions: A549, 24 h; complex mass ratio 1:6
Procedure: A549 cells in the logarithmic growth phase were prepared into single cell suspension, inoculated into a 6-well plate as per approximately 1×10^5 cells per well. Then, 2 ml of medium was added to each well and cultured in a 5% CO2 incubator at 37° C. for 24-36 h.
a. 5 mg/ml of pMVA-1 plasmid vector solution was added to 100 μl of 1640 serum-free medium for preparing a pMVA-1 plasmid vector control group;
b. 1 mg/ml of DOTAP cationic lipid was dissolved in 100 μl of 1640 serum-free medium for preparing a DOTAP cationic lipid control group;
c. the pMVA-1/DOTAP complex with a mass ratio of 1:6 prepared in Example 5 was dissolved in 100 μl of 1640 serum-free medium for preparing a pMVA-1/DOTAP complex experimental group.
Some of the medium was pipetted from the 6-well plate in Step (1) until the medium in each well reached 900 μl. The pMVA-1/DOTAP complex (pMVA-DOTAP) (prepared in Step (2)) of the experimental group as well as the pMVA-1 plasmid vector (PMVA) and DOTAP cationic lipid (DOTAP) of the control group was added to A549 cells cultured in Step (1) respectively to make the total volume of 1 ml. At the same time, a blank control group containing only medium was made, and incubated in a 5% of CO2 incubator at 37° C. for 24 h. […]
The cells stained with PI and Annexin V in Step (4) were washed once with PBS and observed under a fluorescence microscope. […]

A549 cells [2] = experiment: A549 cell death test by flow cytometry; type: cell-based; conditions: A549, 24 h, compared with blank control group
Procedure: The method was the same as that in 1(1).
The method was the same as that in 1(2), wherein, the concentration of DOTAP cationic lipid was 4 μg/ml, 8 μg/ml, 16 μg/ml and 32 μg/ml respectively, and the concentration of the pMVA-1/DOTAP complex was expressed by that of DOTAP cationic lipid.
The method was the same as that in 1(3).
a. A549 cells treated by different samples in the Step (3) were washed twice with cold PBS, and resuspended with 1× binding buffer for preparing a cell suspension with a density of 1×10^6 cells/ml;
b. 100 μl of A549 cell suspension prepared in Step a was pipetted into the flow test tube;
c. 5 μl of FITC Annexin V and 5 μl of PI were added to the flow test tube in Step b, mixed gently, and incubated at room temperature for 15 min in the dark;
d. 400 μl of 1× binding buffer was added to the flow test tube in Step c and tested by flow cytometry;

[3] = test system: mouse cervical cancer cell line U14; experiment: Mice U14 subcutaneous model, complex combined with chemotherapy; type: in vivo, C57 female mice; conditions: U14 sc
Procedure: C57 female mice aged 6-8 weeks were raised. The mouse cervical cancer cell line U14 cultured to the logarithmic growth phase was prepared into a cell suspension and the cell density was 2×10^7/ml. Experimental animals were subcutaneously injected on the right back, with an injection system of 100 μl per mouse. When the tumor could be palpated (tumor volume is about 4 mm×4 mm×3 mm, i.e. the 5th day after inoculation), the mice were randomly divided into 6 groups, and administrated every 3 days for a total of 8 times according to the grouping and treatment scheme in Table 16. The tumor volume was measured every three days. After administration for 8 times, the mice were killed and subcutaneous tumors were dissected for examination.
Wherein, the administration volume is 100 μl per mouse, DDP is intraperitoneally administrated once a week. DDP is Cisplatin and LP is pMVA-1/DOTAP complex.

A549 cells [4] = experiment: Mitochondrial membrane potential by TMRM, flow cytometry; type: cell-based; conditions: A549, 15-24 h
Procedure: (1) Inoculation of tumor cells in plates: A549 cells and CT26 cells in the logarithmic growth phase were prepared into a cell suspension respectively, inoculated into a 6-well plate as per 1×10^5 cells/well, 2 ml of medium was added to each well, and cultured overnight in a 5% CO2 incubator at 37° C.
(2) Different samples added to act on tumor cells: the pMVA-1 plasmid, the DOTAP cationic lipid and the pMVA-1/DOTAP complex were added to the tumor cells cultured in Step (1) respectively, and incubated at 37° C. for 15 h, 18 h, 21 h and 24 h.
(3) Preparation of TMRM dyeing working fluid (made by Life Technologies): the TMRM mother liquor was diluted with PBS at a ratio of 1:100000 to obtain the TMRM dyeing working fluid. […]
(5) The tumor cells in Step (4) were collected and treated with different samples for different times, and the tumor cells with mitochondrial membrane potential changes were analyzed by flow cytometry.
As a potentiometric fluorescence probe, tetramethylrhodamine methyl ester (TMRM) entered the cells and was cleaved by cell lactonase to produce tetramethylrhodamine, indicating strong fluorescence after they had entered mitochondria. […] Therefore, the open state of mitochondrial membrane channel pores can be verified by testing the changes of fluorescence intensity in mitochondria of tumor cells.

[5] = test system: mouse sarcoma cell line S180; experiment: Subcutaneous S180 sarcoma model in mice; type: in vivo, KM mice; conditions: 2.5 μg pMVA-1 and/or 25 μg DOTAP sc every 3 days x5; 21 days after inoculation
Procedure: KM mice aged 6-8 weeks were raised. The mouse sarcoma cell line S180 cultured to the logarithmic growth phase was prepared into a cell suspension, and mouse subcutaneous tumor was modeled by subcutaneous injection in the right axilla of each mouse. The number of cells injected into each mouse was 1×10^7, and the injection system was 200 μl for each mouse.
On the 5th day after inoculation of S180 sarcoma cells, when the tumor could be palpated, 40 tumor-bearing mice were randomly divided into 4 groups according to Table 12: i.e. negative control group (NS), DOTAP control group, pMVA-1 control group, and treatment group pMVA-1/DOTAP group. Then, the mice were subcutaneously administrated according to Table 12: 2.5 μg of plasmid pMVA-1 for each mouse in the pMVA-1 control group; 25 μg of DOTAP for each mouse in DOTAP control group; 2.5 μg of DNA and 25 μg of DOTAP for each mouse in the treatment group of the pMVA-1/DOTAP complex group; that is, the mass ratio of plasmid DNA to DOTAP was 1:10. After that, they were administrated every three days for a total of 5 times. The mice were killed and the tumor-free rate of the mice was counted 21 days after inoculation of the tumor.

## CCCCCCCC/C=C\CCCCCCCC(=O)OCC(C[N+](C)(C)C)OC(=O)CCCCCCC/C=C\CCCCCCCC (centres unmarked) [DOTAP, 1,2-dioleoyl-3-trimethylammonium-propane]
A549 cells [1]
  PI-positive and AnnexinV-positive cells: did not indicate obvious PI uptake and AnnexinV-labeled positive cells
A549 cells [2]
  Annexin-V single positive, PI single positive and PI/Annexin-V double positive cells (PI uptake and Annexin-V): did not increase significantly
[3]
  lymphocyte infiltration in tumor tissue: less common
A549 cells [4]
  mitochondrial membrane potential: did not change significantly
[5]
  tumor-free rate of mice: 20%
